Target: T1, human EP2 (PTGER2) (Homo sapiens, UniProt P43116)
T1 construct: Cayman Chemical (Human EP2 Reporter Assay Kit)
Assay: EP2 antagonist assay (HEK-293 CNG membrane potential cAMP assay / 293T SEAP reporter assay, PGE2-stimulated)
Assay type: cell-based
Conditions: EP2 antagonist activity; concentration for 50% inhibition of signal compared to DMSO
Text: 1. The HEK-293 CNG (Cyclic Nucleotide Gated) cell line expressing a modified CNG channel that leads to cell membrane depolarization in response to elevated intracellular cAMP levels, which can be measured using a fluorescent membrane potential dye, was engineered to express human EP2 (PTGER2) or EP4 (EP4R). The resulting cell line ACTOne™ PTGER2 or ACTOne™ EP4R as well as the fluorescent membrane potential dye were purchased from eEnzyme (Gaithersburg, MD, US) and used in this assay. Briefly, cells were plated at 1.2×10^4 cells/well in 20 μL DMEM supplemented with 2% Fetal Bovine Serum (FBS, VWR International), 1x Penicillin/Streptomycin (GenClone), 0.2 μg/mL puromycin (InvivoGen) and 50 μg/mL G418 (InvivoGen) on a 384 well plate (Greiner). The next day, cells were dye-loaded with 20 μL/well of 1x Dye-loading solution (eENZYME) following the manufacturer's instruction. After 2 hours of incubation at room temperature (RT) in the dark, a pre-read was made to obtain the background signals using CLARIOstar plate reader (BMG LABTECH, Germany) with the following filter settings: excitation=530/20 nm, emission=590/20 nm. Next, a serial dilution of compound (plus a DMSO control) were added to the plate (5 μL/well) and the reaction was incubated at RT for 15 min before adding 5 μL of PGE2 to every well for a final concentration of 5 nM. All wells were duplicated. The plate was then further incubated at RT for 30 min prior to a final read with the same machine settings. Background-subtracted signals were used to calculate IC50 values.
2. Human EP2 and EP4 Reporter Assay Kits were purchased from Cayman Chemical (Ann Arbor, MI, USA). The assay was performed following the provided User Manual. Briefly, a reverse transfection was performed by seeding 6.0×10^4 of 293T cells (ATCC) to each well of the provided Strip Plate coated with a proprietary transfection complex containing DNA constructs for expressing human EP2 or EP4 and a cAMP response element regulated secreted alkaline phosphatase (SEAP) reporter, in 200 μL DMEM supplemented with 2% FBS and incubated for 20-24 hours at 37° C. with 5% CO2. After the incubation, the culture medium was carefully removed, and the cells were replenished with 150 μL pre-warmed serum-free medium. PGE2 and test compounds were prepared together at 4x the desired final concentration, and 50 μL was added to each assigned well with the final concentration of 13 nM and 2 nM PGE2 for EP2 and EP4 assay, respectively. After 6-8 hours of incubation, 10 μL media from each well was transferred to corresponding well of a new plate, which was then sealed and incubated at 65° C. for 30 min. The plate was then cooled down to RT and 50 μL SEAP substrate was added to each well. Luminescence signal was measured using a CLARIOstar plate reader.
The IC50 value was determined as the concentration for 50% inhibition of signal compared to DMSO (A: IC50 […]; B: IC50 between 100 nM and 1,000 nM; C: IC50≥1,000 nM).

T1 sequence (P43116 whole entry): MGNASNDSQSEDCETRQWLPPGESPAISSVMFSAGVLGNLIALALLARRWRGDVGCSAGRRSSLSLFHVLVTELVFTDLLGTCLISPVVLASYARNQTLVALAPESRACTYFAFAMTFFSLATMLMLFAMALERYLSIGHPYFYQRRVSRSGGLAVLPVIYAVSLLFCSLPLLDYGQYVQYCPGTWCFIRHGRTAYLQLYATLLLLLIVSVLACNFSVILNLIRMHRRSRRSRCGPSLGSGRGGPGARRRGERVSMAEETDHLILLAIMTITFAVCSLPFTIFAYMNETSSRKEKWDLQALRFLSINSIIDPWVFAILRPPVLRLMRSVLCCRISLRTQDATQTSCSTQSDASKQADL

| SMILES | IC50 |
| --- | --- |
| C[C@H](NC(=O)c1cc(-c2ccccc2)cc2ccn(Cc3cccc(Cl)c3)c12)c1ccc(C(=O)O)cc1 [Example 110, (S)-4-(1-(1-(3-chlorobenzyl)-5-phenyl-1H-indole-7-carboxamido)ethyl)benzoic acid] | < 100 nM |
| O=C(O)c1ccc(CNC(=O)c2ccc(-c3cc(F)cc(F)c3)c3ccn(Cc4ccc(C(F)(F)F)cc4)c23)cc1 [Example 27, 4-((4-(3,5-difluorophenyl)-1-(4-(trifluoromethyl)benzyl)-1H-indole-7-carboxamido)methyl) benzoic acid] | ≥ 1000 nM |
| O=C(O)c1ccc(CNC(=O)c2cc(-c3ccc(F)cc3)cc3cnn(Cc4cccc(C(F)(F)F)c4)c23)cc1 [Example 138, 4-((5-(4-fluorophenyl)-1-(3-(trifluoromethyl)benzyl)-1H-indazole-7-carboxamido)methyl)benzoic acid] | < 100 nM |
| C[C@H](NC(=O)c1cc(-c2ccccc2)cc2cnn(Cc3ccc4ccccc4c3)c12)c1ccc(C(=O)O)cc1 [Example 167, (S)-4-(1-(1-(naphthalen-2-ylmethyl)-5-phenyl-1H-indazole-7-carboxamido)ethyl)benzoic acid] | < 100 nM |
| C[C@H](NC(=O)c1cc(-c2cccnc2)cc2ccn(Cc3cccc(C(F)(F)F)c3)c12)c1ccc(C(=O)O)cc1 [Example 128, (S)-4-(1-(5-(pyridin-3-yl)-1-(3-(trifluoromethyl)benzyl)-1H-indole-7-carboxamido)ethyl)benzoic acid] | < 100 nM |
| O=C(O)c1ccc(C2(NC(=O)c3ccc(Nc4cccc(F)c4)c4ccn(Cc5ccc(C(F)(F)F)cc5)c34)CC2)cc1 [Example 67, 4-(1-(4-((3-fluorophenyl)amino)-1-(4-(trifluoromethyl)benzyl)-1H-indole-7-carboxamido)cyclopropyl)benzoic acid] | < 100 nM |
| O=C(O)c1ccc(C2(NC(=O)c3cc(-c4cc(F)cc(F)c4)cc4ccn(Cc5cccc(C(F)(F)F)c5)c34)CC2)cc1 [Example 132, 4-(1-(5-(3,5-difluorophenyl)-1-(3-(trifluoromethyl)benzyl)-1H-indole-7-carboxamido)cyclopropyl)benzoic acid] | 100 to 1000 nM |
| C[C@H](NC(=O)c1cc(-c2cccnc2)cc2ccn(Cc3cccc(Cl)c3)c12)c1ccc(C(=O)O)cc1 [Example 109, (S)-4-(1-(1-(3-chlorobenzyl)-5-(pyridin-3-yl)-1H-indole-7-carboxamido)ethyl)benzoic acid] | < 100 nM |
| C[C@@H](NC(=O)c1cc(-c2ccc(F)cc2)cc2ccn(Cc3ccc(C(F)(F)F)cc3)c12)c1ccc(C(=O)O)cc1 [Example 3, (R)-4-(1-(5-(4-fluorophenyl)-1-(4-(trifluoromethyl)benzyl)-1H-indole-7-carboxamido)ethyl)benzoic acid] | ≥ 1000 nM |
| O=C(O)c1ccc(CNC(=O)c2cc(-c3ccccc3)cc3ncn(Cc4ccc(C(F)(F)F)cc4)c23)cc1 [Example 171, 4-((5-phenyl-1-(4-(trifluoromethyl)benzyl)-1H-benzo[d]imidazole-7-carboxamido)-methyl)benzoic acid] | < 100 nM |
| O=C(O)c1ccc(CNC(=O)c2ccc(-c3cc(F)cc(C(F)(F)F)c3)c3ccn(Cc4ccc(C(F)(F)F)cc4)c23)cc1 [Example 28, 4-((4-(3-fluoro-5-(trifluoromethyl)phenyl)-1-(4-(trifluoromethyl)benzyl)-1H-indole-7-carboxamido)methyl)benzoic acid] | ≥ 1000 nM |
| N#Cc1cccc(-c2cc(C(=O)NC34CC(CC(=O)O)(C3)C4)c3c(Sc4ccc(C(F)(F)F)cc4)c[nH]c3c2)c1 [Example 118, 2-(3-(6-(3-cyanophenyl)-3-((4-(trifluoromethyl)phenyl)thio)-1H-indole-4-carboxamido)bicyclo[1.1.1]pentan-1-yl)acetic acid] | 100 to 1000 nM |
| O=C(O)c1ccc(CNC(=O)c2ccc(Nc3ccc(Cl)cc3)c3ccn(Cc4ccc(C(F)(F)F)cc4)c23)cc1 [Example 73, ((4-((4-chlorophenyl)amino)-1-(4-(trifluoromethyl)benzyl)-1H-indole-7-carboxamido)methyl)benzoic acid] | 100 to 1000 nM |
| O=C(O)c1ccc(C2(NC(=O)c3cc(-c4cc(F)cc(F)c4)cc4ccn(Cc5ccc(C(F)(F)F)cc5)c34)CC2)cc1 [Example 19, 4-(1-(5-(3,5-difluorophenyl)-1-(4-(trifluoromethyl)benzyl)-1H-indole-7-carboxamido)cyclopropyl)benzoic acid] | ≥ 1000 nM |
| O=C(O)c1ccc(CNC(=O)c2ccc(-c3ccc(F)c(F)c3)c3ccn(Cc4ccc(C(F)(F)F)cc4)c23)cc1 [Example 23, 4-((4-(3,4-difluorophenyl)-1-(4-(trifluoromethyl)benzyl)-1H-indole-7-carboxamido)methyl) benzoic acid] | ≥ 1000 nM |
| C[C@H](NC(=O)c1cc(-c2ccc(F)c(F)c2)cc2cnn(Cc3ccc(-c4ccccc4)cc3)c12)c1ccc(C(=O)O)cc1 [Example 201, (S)-4-(1-(1-([1,1′-biphenyl]-4-ylmethyl)-5-(3,4-difluorophenyl)-1H-indazole-7-carboxamido)ethyl)benzoic acid] | < 100 nM |
| N#Cc1cccc(-c2cc(C(=O)NC3(c4ccc(C(=O)O)cc4)CC3)c3c(ccn3Cc3cccc(C(F)(F)F)c3)c2)c1 [Example 133, 4-(1-(5-(3-cyanophenyl)-1-(3-(trifluoromethyl)benzyl)-1H-indole-7-carboxamido)cyclopropyl)benzoic acid] | 100 to 1000 nM |
| O=C(O)c1ccc(CNC(=O)c2cc(-c3cc(F)cc(F)c3)cc3cnn(Cc4ccc(C(F)(F)F)cc4)c23)cc1 [Example 99, 4-((5-(3,5-difluorophenyl)-1-(4-(trifluoromethyl)benzyl)-1H-indazole-7-carboxamido)methyl)benzoic acid] | < 100 nM |
| O=C(O)c1ccc(C2(NC(=O)c3cc(-c4ccc(F)cc4)cc4ccn(Cc5ccc(C(F)(F)F)cc5)c34)CC2)cc1 [Example 5, 4-(1-(5-(4-fluorophenyl)-1-(4-(trifluoromethyl)benzyl)-1H-indole-7-carboxamido)cyclopropyl)-benzoic acid] | 100 to 1000 nM |
| C[C@H](NC(=O)c1cc(-c2ccc(F)cc2)cc2ccn(Cc3ccc4ccccc4n3)c12)c1ccc(C(=O)O)cc1 [Example 144, (S)-4-(1-(5-(4-fluorophenyl)-1-(quinolin-2-ylmethyl)-1H-indole-7-carboxamido)ethyl)benzoic acid] | < 100 nM |
| C[C@H](NC(=O)c1cc(-c2ccc(F)cc2)cc2cnn(Cc3ccc(-c4ccc(F)cc4)cc3)c12)c1ccc(C(=O)O)cc1 [Example 203, (S)-4-(1-(1-((4′-fluoro-[1,1′-biphenyl]-4-yl)methyl)-5-(4-fluorophenyl)-1H-indazole-7-carboxamido)ethyl)benzoic acid] | < 100 nM |
| CC(NC(=O)c1cc(-c2ccccc2)cc2cnn(Cc3cccc(C(F)(F)F)c3)c12)[C@H]1CC[C@H](C(=O)O)CC1 (mixture of isomers) [Example 222, (±) (1r,4r)-4-1-(5-phenyl-1-(3-(trifluoromethyl)benzyl)-1H-indazole-7-carboxamido)ethyl)cyclohexane-1-carboxylic acid] | < 100 nM |
| N#Cc1cccc(-c2cc(C(=O)NC3(c4ccc(C(=O)O)cc4)CC3)c3c(ccn3Cc3ccc(C(F)(F)F)cc3)c2)c1 [Example 17, 4-(1-(5-(3-cyanophenyl)-1-(4-(trifluoromethyl)benzyl)-1H-indole-7-carboxamido)cyclopropyl)benzoic acid] | < 100 nM |
| O=C(O)c1ccc(C2(NC(=O)c3ccc(-c4ccccc4)c4ccn(Cc5ccc(C(F)(F)F)cc5)c34)CC2)cc1 [Example 36, 4-(1-(4-phenyl-1-(4-(trifluoromethyl)benzyl)-1H-indole-7-carboxamido)cyclopropyl)benzoic acid] | ≥ 1000 nM |
| O=C(O)c1ccc(CNC(=O)c2ccc(-c3cccc(C(F)(F)F)c3)c3ccn(Cc4ccc(C(F)(F)F)cc4)c23)cc1 [Example 24, 4-((1-(4-(trifluoromethyl)benzyl)-4-(3-(trifluoromethyl)phenyl)-1H-indole-7-carboxamido)-methyl)benzoic acid] | ≥ 1000 nM |

Source: patent US20250179017A1 (GUANGDONG NEWOPP BIOPHARMACEUTICALS CO., LTD., priority 2022, published 2025)
